Experiment [1] concerns Smooth Muscle Cells of Rat Portal Vein. Kind of experiment: Spontaneous contractile activity of rat portal vein smooth muscle specimens. It is filed as cell-based. As to conditions: 10^-6 g/ml. How it is done: Rat portal vein SMS samples were surgically isolated from random bred rats weighing 200-250 g. The suitability of each isolated rat portal vein SMS was established by measuring the spontaneous contraction response and its contractile response of the specimen to potassium chloride (KCl) as follows. Each isolated SMS was placed into an organ bath with standard Krebs-Henseleit (KH) solution at 35° C. Then, 0.5 ml of physiological saline were added into the organ bath. In this procedure, one end of the smooth muscle strip was fixed, while the other end of the muscle strip was connected with a probe which transmitted contraction-induced signals to an analog-to-digital converter. The spontaneous contraction curve for each SMS was recorded by taking repeated measurements over a 1-minute period. Next, 0.5 ml of a 600 mM solution of KCl in physiological saline was added to the SMS sample/organ bath to achieve a final concentration of 60 mM KCl. KCl induces contraction of rat portal vein tissue at a fmal tissue concentration of about 60 mM.
The KCl-induced contraction curve for each specimen sample was then recorded over the next 5-minute period. […] During this stabilization period, the spontaneous contraction curve for each SMS was verified by monitoring the data obtained from analog-to-digital converter.
To each SMS in the organ bath prepared according to Steps 2 and 3 above, 0.5 ml of physiological saline was added, and the spontaneous contraction curve was recorded for 1 minute. Each spontaneous contraction curve served as baseline (control) curve for comparison with the respective spontaneous contraction of each SMS in the presence of a test substance or reference substance.
Spontaneous contraction curve values for each SMS were recorded by making repetitive measurements of the spontaneous contractile activity of each sample at 2, 5, 10, and 15 minutes after the addition of the test or reference substance to each SMS/organ bath. Next, 0.5 ml of a solution of 600 mM solution of KCl in […] in the organ bath until a final concentration of 60 mM KCl was achieved. The contractile activity of each SMS was then measured for 5 minutes.

Experiment [2] has as its system rats. Kind of experiment: CPK activity in blood serum 1 hour after coronary occlusion. It is filed as in vivo. The conditions noted are these: for CPK Activity in blood serum: 1 hour after coronary occlusion. How it is done:
White random-bred male rats weighing approximately 200 g were anesthetized using a light ether administration and then immobilized and artificially ventilated. […] Immediately after ligation, a test substance, positive, control substance, or negative control substance (described below) was administered to a rat through a catheterized femoral vein. Each dose of each test substance or positive or negative control substance was administered to an experimental or control group of 9 test rats. In this study, GE and VT served as test substances, propranolol served as the positive control substance, and physiological saline served as the negative control substance. Each test rat in an experimental group was given a dose of either 0.1, 1.0, or 10.0 milligram GE per kilogram of body weight of the subject animal (mg/kg) or 0.1, 1.0, or 10.0 milligram VT per kilogram of body weight of the animal. Each animal of the positive control group received an intravenous dose of 0.5 mg of β-adrenergic blocking agent, propranolol (Obzidan, Germed, Germany) per kilogram of body weight. Propranolol is commonly used to manage cardiac arrhythmia and there is some evidence that the agent may reduce the extent of ischemic damage to the heart. […] Each animal of the negative control group received physiological saline.
One hour after initiation of the coronary artery occlusion, each test animal was sacrificed, its blood was collected, and the CPK activity in its blood serum was measured. CPK activity was determined by using a standard biochemical method, such as that commercially available from the Lachema Company (Czechia) in its test kit, and by following the manufacturer's process instructions included in the package insert.
As a supplementary control for the possible trauma caused by the surgical procedure, a group of 9 sham-operated rats was included in the study. These test animals were subjected to chest dissection, but not to coronary artery occlusion. These "sham-operated" animals were not treated with any test or control substances and were euthanized 1 hour after surgery. Their blood was then collected for determination of CPK activity.

Residues, ends and D or L forms follow the SMILES beside them.

For the compound `NCC(=O)N[C@@H](CCC(=O)O)C(=O)O` [GE, L-Glycyl-L-Glutamic acid] (H-Gly-Glu-OH), the “effect on spontaneous contractions (amplitude and area under curve)” value in experiment [1] is “appreciably reduced the amplitude of and area under the contraction curve”. The “Amplitude of spontaneous contraction (% of Control)” value in experiment [1] (2 min after application) is reported as 114.93%; in experiment [1] (5 min after application) it was 75.56%; in experiment [1] (10 min after application) it was 60.37%; in experiment [1] (15 min after application), 63.94%. For the same compound, the “Area Under Curve of spontaneous contraction (% of Control)” value in experiment [1] (2 min after application) was determined as 134.77%; in experiment [1] (5 min after application), 87.51%; in experiment [1] (10 min after application), 70.07%; in experiment [1] (15 min after application) it was 75.08%. Further, the “CPK Activity in blood serum” value in experiment [2] (0.1 mg/kg i.v.) is 0.062 (±0.013) mcCat/L; in experiment [2] (1.0 mg/kg i.v.), 0.056 (±0.014) mcCat/L; in experiment [2] (10.0 mg/kg i.v.), 0.110 (±0.024) mcCat/L. Moreover, the “extent of induced myocardial ischemic lesions (CPK in serum vs negative control)” value in experiment [2] (0.1, 1.0, and 10.0 milligram) is on record as “diminish the extent of induced myocardial ischemic lesions”.
